Measurements reported in PubChem BioAssay (NCI).
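Tested at 5 concentrations; 48 h exposure; 96-well plates; endpoints linearly interpolated, else capped at highest concentration. TGI: concentration producing complete growth inhibition.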

Key:
Test in all cases: NCI tumour cell line growth inhibition, 48 h
[1] = tested on: A498 renal
[2] = tested on: A549 NSCLC
[3] = tested on: CAKI-1 renal
[4] = tested on: CCRF-CEM leukemia
[5] = tested on: COLO 205 colon
[6] = tested on: DLD-1 colon
[7] = tested on: DMS 114 small cell lung
[8] = tested on: DMS 273 small cell lung
[9] = tested on: EKVX NSCLC
[10] = tested on: HCC-2998 colon
[11] = tested on: HCT-116 colon
[12] = tested on: HCT-15 colon
[13] = tested on: HL-60(TB) leukemia
[14] = tested on: HOP-18 NSCLC
[15] = tested on: HOP-62 NSCLC
[16] = tested on: HOP-92 NSCLC
[17] = tested on: HT29 colon
[18] = tested on: IGROV1 ovarian
[19] = tested on: K-562 leukemia
[20] = tested on: KM12 colon
[21] = tested on: KM20L2 colon
[22] = tested on: LOX IMVI melanoma
[23] = tested on: M19-MEL melanoma
[24] = tested on: MALME-3M melanoma
[25] = tested on: MCF7 breast
[26] = tested on: MOLT-4 leukemia
[27] = tested on: NCI-H226 lung
[28] = tested on: NCI-H23 lung
[29] = tested on: NCI-H460 lung
[30] = tested on: NCI-H522 lung
[31] = tested on: NCI/ADR-RES ovarian
[32] = tested on: OVCAR-3 ovarian
[33] = tested on: OVCAR-4 ovarian
[34] = tested on: OVCAR-5 ovarian
[35] = tested on: OVCAR-8 ovarian
[36] = tested on: P388 leukemia
[37] = tested on: P388/ADR leukemia
[38] = tested on: RPMI-8226 leukemia
[39] = tested on: RXF 393 renal
[40] = tested on: SF-268 CNS
[41] = tested on: SF-295 CNS
[42] = tested on: SF-539 CNS
[43] = tested on: SK-MEL-2 melanoma
[44] = tested on: SK-MEL-28 melanoma
[45] = tested on: SK-MEL-5 melanoma
[46] = tested on: SK-OV-3 ovarian
[47] = tested on: SN12C renal
[48] = tested on: SN12K1 renal
[49] = tested on: SNB-19 CNS
[50] = tested on: SNB-75 CNS
[51] = tested on: SNB-78 CNS
[52] = tested on: SW-620 colon
[53] = tested on: U251 CNS
[54] = tested on: UACC-257 melanoma
[55] = tested on: UACC-62 melanoma
[56] = tested on: UO-31 renal
[57] = tested on: XF 498 CNS

CCC1=CC2CN3CCc4c([nH]c5ccccc45)C(C(=O)OC)(C2)C13 (centres undefined)
TGI [1]: 108 µM
TGI [2]: 82.5 µM
TGI [3]: 46.5 µM
TGI [4]: 252 µM
TGI [5]: 80.6 µM
TGI [6]: 87.5 µM
TGI [7]: 85.1 µM
TGI [8]: 91 µM
TGI [9]: 78.2 µM
TGI [10]: > 92.6 µM
TGI [11]: 71 µM
TGI [12]: 90.8 µM
TGI [13]: 125 µM
TGI [14]: > 30 µM
TGI [15]: 86.1 µM
TGI [16]: 33.9 µM
TGI [17]: 60.4 µM
TGI [18]: 105 µM
TGI [19]: 202 µM
TGI [20]: 41.8 µM
TGI [21]: 19.3 µM
TGI [22]: 121 µM
TGI [23]: 85.8 µM
TGI [24]: 92.8 µM
TGI [25]: 95.4 µM
TGI [26]: 181 µM
TGI [27]: 23.4 µM
TGI [28]: 100 µM
TGI [29]: 102 µM
TGI [30]: 102 µM
TGI [31]: 110 µM
TGI [32]: 107 µM
TGI [33]: 75.3 µM
TGI [34]: 24.3 µM
TGI [35]: 14.7 µM
TGI [36]: 93.1 µM
TGI [37]: 131 µM
TGI [38]: 137 µM
TGI [39]: 78.7 µM
TGI [40]: 101 µM
TGI [41]: 90.1 µM
TGI [42]: 92.8 µM
TGI [43]: 114 µM
TGI [44]: 98.4 µM
TGI [45]: 79.4 µM
TGI [46]: 134 µM
TGI [47]: 89.3 µM
TGI [48]: 39.6 µM
TGI [49]: 68.4 µM
TGI [50]: 89.9 µM
TGI [51]: 167 µM
TGI [52]: 82.7 µM
TGI [53]: 117 µM
TGI [54]: 104 µM
TGI [55]: 64 µM
TGI [56]: 71.4 µM
TGI [57]: 76.3 µM

CCOC(=O)c1c(C)c2c(n1C)CCc1cn[nH]c1-2
TGI [1]: > 100 µM
TGI [2]: > 100 µM
TGI [3]: > 100 µM
TGI [4]: > 100 µM
TGI [5]: > 100 µM
TGI [6]: > 100 µM
TGI [7]: > 100 µM
TGI [8]: > 100 µM
TGI [9]: > 100 µM
TGI [10]: > 100 µM
TGI [11]: > 100 µM
TGI [12]: > 100 µM
TGI [13]: > 100 µM
TGI [14]: > 100 µM
TGI [15]: > 100 µM
TGI [16]: > 100 µM
TGI [17]: > 100 µM
TGI [18]: > 100 µM
TGI [19]: > 100 µM
TGI [20]: > 100 µM
TGI [21]: > 100 µM
TGI [22]: > 100 µM
TGI [23]: > 100 µM
TGI [24]: > 100 µM
TGI [25]: > 100 µM
TGI [26]: > 100 µM
TGI [27]: > 100 µM
TGI [28]: > 100 µM
TGI [29]: > 100 µM
TGI [30]: > 100 µM
TGI [31]: > 100 µM
TGI [32]: > 100 µM
TGI [33]: > 100 µM
TGI [34]: > 100 µM
TGI [35]: > 100 µM
TGI [36]: > 100 µM
TGI [37]: > 31.6 µM
TGI [38]: > 100 µM
TGI [39]: > 100 µM
TGI [40]: > 100 µM
TGI [41]: > 100 µM
TGI [42]: > 100 µM
TGI [43]: > 100 µM
TGI [44]: > 100 µM
TGI [45]: > 100 µM
TGI [46]: > 100 µM
TGI [47]: > 100 µM
TGI [48]: > 100 µM
TGI [49]: > 100 µM
TGI [50]: > 100 µM
TGI [51]: > 100 µM
TGI [52]: > 100 µM
TGI [53]: > 100 µM
TGI [54]: > 100 µM
TGI [55]: > 100 µM
TGI [56]: > 100 µM
TGI [57]: > 100 µM
